Measurements reported in PMC6257782, “Design, Synthesis, and Biological Evaluation of Benzylamino-Methanone Based Cholesteryl Ester Transfer Protein Inhibitors” (Molecules, 2010).

These compounds were tested against T1, CETP (from rabbit serum) (Oryctolagus cuniculus, UniProt P22687) (assay: fluorescent neutral lipid (CE) transfer assay, BioVision kit). Details: read-out: In vitro % inhibition of CETP at 10 μM.
T1 construct: native CETP in whole rabbit serum, not purified; BioVision fluorescent CE transfer kit (introduction describes human CETP, 476 residues, PDB 2OBD, not the assayed protein)
T1 sequence (P22687 2-497): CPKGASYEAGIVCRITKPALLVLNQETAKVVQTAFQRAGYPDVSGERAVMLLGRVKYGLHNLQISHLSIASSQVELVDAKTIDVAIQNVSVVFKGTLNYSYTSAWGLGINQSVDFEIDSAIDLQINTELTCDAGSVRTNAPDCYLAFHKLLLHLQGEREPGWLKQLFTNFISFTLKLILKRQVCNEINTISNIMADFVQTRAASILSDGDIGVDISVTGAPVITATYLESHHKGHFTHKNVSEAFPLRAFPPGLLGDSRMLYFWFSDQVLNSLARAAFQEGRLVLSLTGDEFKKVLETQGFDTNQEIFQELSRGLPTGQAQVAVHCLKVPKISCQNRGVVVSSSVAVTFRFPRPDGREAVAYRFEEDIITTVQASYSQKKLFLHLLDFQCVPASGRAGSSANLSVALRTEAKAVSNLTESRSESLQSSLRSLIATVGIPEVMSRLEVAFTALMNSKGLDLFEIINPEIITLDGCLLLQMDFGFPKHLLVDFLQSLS
Format: biochemical
Description: fluorescent neutral lipid (CE) transfer assay, BioVision kit on CETP (from rabbit serum)

| Structure (SMILES) | inhibition at 10 µM [%] |
| --- | --- |
| COc1cccc(CNc2ccc(C(=O)c3ccc(C)cc3)cc2)c1 [compound 19, [4-(3-Methoxybenzylamino)phenyl]-p-tolyl-methanone] | 16.4 ± 3 |
| Cc1ccc(C(=O)c2ccc(NCc3cccc(C(F)(F)F)c3)cc2)cc1 [compound 21, p-Tolyl-[4-(3-trifluoromethylbenzylamino)phenyl]-methanone] | 16.7 ± 0.6 |
| Cc1ccc(C(=O)c2ccc(NCc3ccc(C(F)(F)F)cc3)cc2)cc1 [compound 22, p-Tolyl-[4-(4-trifluoromethylbenzylamino)phenyl]-methanone] | 12.6 ± 2.6 |
| COc1ccc(C(=O)c2ccc(NCc3cccc(C(F)(F)F)c3)cc2)c(OC)c1 [compound 29, (2,4-Dimethoxyphenyl)-[4-(3-trifluoromethylbenzylamino)phenyl]-methanone] | 19.5 ± 0.6 |
| COc1ccc(C(=O)c2ccc(NCc3ccc(C(F)(F)F)cc3)cc2)c(OC)c1 [compound 30, (2,4-Dimethoxyphenyl)-[4-(4-trifluoromethylbenzylamino)phenyl]-methanone] | 19.8 ± 2.9 |
